{"source": "patent US12590093B2", "about": "“Indolo[2′,3′:3,4]pyrido[2,1-b]quinazoline compound and use thereof” (INSTITUTE OF MEDICINAL BIOTECHNOLOGY CHINESE ACADEMY OF …, priority 2019, dated 2026)", "key": {"[1]": {"biological_target": "T1, PPARγ (Homo sapiens, UniProt P37231)", "T1 construct": "expressed in transfected cells; host or cells: HepG2", "T1 sequence (P37231 238-503 limits assumed)": "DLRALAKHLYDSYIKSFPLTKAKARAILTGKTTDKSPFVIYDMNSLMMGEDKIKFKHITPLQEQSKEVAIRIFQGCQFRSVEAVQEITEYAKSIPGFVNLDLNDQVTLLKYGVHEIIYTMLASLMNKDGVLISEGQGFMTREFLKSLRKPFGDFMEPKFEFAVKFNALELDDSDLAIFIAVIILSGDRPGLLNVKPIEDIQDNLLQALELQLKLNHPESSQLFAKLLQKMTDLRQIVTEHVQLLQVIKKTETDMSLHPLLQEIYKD", "test": "Nuclear receptor reporter gene transient transfection (pBIND-hPPARs-LBD) in HepG2 cells, PPARγ", "type": "cell-based", "conditions": "FIG. 2, result in words", "description": "HepG2 cells in logarithmic growth phase were digested, seeded into the white/clear 96-well plate at a density of 5×10^4 cells/well/100 μL until the cells grew to about 90% confluence and in good condition. 0.5 μL liposome (Lipofectamine® 2000) diluted with blank medium to 25 μL per well and incubated at room temperature for 5 min. The corresponding plasmids DNA (nuclear receptor plasmid:Gal4=1:10) were diluted in blank DMEM medium to 25 μL/well (mixing of two plasmids), then mixed evenly with the diluted liposome, and incubated for 20 min at 37° C. The DNA-liposome complex (50 μL per well) was added with the DMEM complete medium (100 μL per well) and mixed thoroughly to obtain a DNA-liposome complex cell culture. The cell medium was discarded, and replaced with the DNA-liposome complex cell culture (150 μL/well) (37° C., 5% CO2). After 6 h, the DNA-liposome complex cell culture medium was discarded, and 200 μL serum-free DMEM medium containing the compound at an appropriate concentration was added to each test well, and cultured for 18-24 h. The cell Luciferase activity was measured by the method as described in the Luciferase Assay System."}, "[2]": {"tested_on": "NLRP3 inflammasome", "test": "Western-blot of NLRP3 inflammasome proteins in liver of ApoE−/− mouse and J774A1 cells", "type": "in vivo, mice", "description": "6-week-old male C57/BL6 ApoE^−/− mice were fed on normal chaw diet for one week. The mice were randomly divided into three groups (control group, high-fat diet model group, and treatment group, 12 mice per group) according to the body weight. From 7-week-old, the high-fat diet model group and the treatment group were fed on a high fat diet (HFD) (0.15% cholesterol and 20% fat), and the control group was fed on normal chow diet. The treatment group (R3) mice were administered intragastrically with TR3 (5 mg/kg). The control group and the high-fat diet model group mice were intragastrically administered with sodium carboxymethylcellulose (CMC-Na) solution. After 12 weeks of administration, all mice were fasted overnight. The blood sample was taken from the retro-orbital plexus, collected in a EP tube, and then centrifuged for 15 min (2500 rpm). The centrifuged serum (upper layer) was transferred to new EP tubes (divided into two aliquots) and stored at −20° C. for further use. The mice were fixed, and the skin was cut open along the midline of the abdomen to the neck. The abdominal cavity was cut open to collect the fresh liver tissue. The Liver tissue was put into 3 freezing tubes, and then immediately put into liquid nitrogen for subsequent detection of liver lipid detection and extraction of RNA and protein. The thorax was cut open to expose the heart. The heart was perfused with 10 ml PBS, and then fixed by perfusion with 4% paraformaldehyde solution until the liver turned white. The fixed liver was taken out and placed in a six-well plate containing 4% paraformaldehyde solution for further fixation. The full-length aorta (from the ascending aorta to the common iliac arteries) was isolated and placed in a six-well plate containing 4% paraformaldehyde solution. The aorta was fixed in 4% paraformaldehyde solution overnight and then stored in 20% sucrose solution at 4° C.\n(§1) When animal tissues were used to prepare protein samples, the tissues were firstly homogenized and lysed in the RIPA lysis buffer. The subsequent steps were the same as those for preparing protein samples from cells. When cell supernatants were used to prepare protein samples, the supernatants were freeze-dried, needed to be extracted using a protein recovery kit (Applygen, Beijing, China), and then analyzed by western-blot.\nThe western-blot was used to detect the effects of TR3 on the activation of NLRP3 inflammasome and other related proteins in the liver of ApoE^−/− mouse and J774A1 cells."}, "[3]": {"tested_on": "SR-BI", "test": "SR-BI protein expression in liver of ApoE−/− mice", "type": "in vivo", "conditions": "FIG. 10", "description": "6-week-old male C57/BL6 ApoE^−/− mice were fed on normal chaw diet for one week. The mice were randomly divided into three groups (control group, high-fat diet model group, and treatment group, 12 mice per group) according to the body weight. From 7-week-old, the high-fat diet model group and the treatment group were fed on a high fat diet (HFD) (0.15% cholesterol and 20% fat), and the control group was fed on normal chow diet. The treatment group (R3) mice were administered intragastrically with TR3 (5 mg/kg). The control group and the high-fat diet model group mice were intragastrically administered with sodium carboxymethylcellulose (CMC-Na) solution. After 12 weeks of administration, all mice were fasted overnight. The blood sample was taken from the retro-orbital plexus, collected in a EP tube, and then centrifuged for 15 min (2500 rpm). The centrifuged serum (upper layer) was transferred to new EP tubes (divided into two aliquots) and stored at −20° C. for further use. […]\nas §1, with “The subsequent steps were the same as those for preparing protein samples from cells.” left out"}, "[4]": {"conditions": "liver of ApoE−/− mouse and J774A1 cells, western-blot, FIG. 6"}}, "data": [{"smiles": "c1ccc2c(c1)CN1CCc3c([nH]c4ccccc34)C1=N2", "note": "[TR3, 5,7,8,13-tetrahydroindolo[2′,3′:3,4]pyrido[2,1-b]quinazoline]", "values": [{"measurement": "activation of PPARγ", "setting": "[1]", "result": "simultaneously activated PPARα/γ/δ and LXRα/β to a certain extent"}, {"measurement": "activation of NLRP3 inflammasome in the liver", "setting": "[2]; liver of ApoE−/− mice", "result": "significantly inhibited"}, {"measurement": "expression of Caspase-1 protein", "setting": "[2]; [4]", "result": "significantly inhibited"}, {"measurement": "expression of IL-1β protein", "setting": "[2]; [4]", "result": "significantly inhibited"}, {"measurement": "expression of NLRP3 protein", "setting": "[2]; [4]", "result": "significantly inhibited"}, {"measurement": "expression of SR-BI in the liver", "setting": "[3]", "result": "increased"}]}]}
